{"source": "patent US12121521B2", "about": "“Uses of salt-inducible kinase (SIK) inhibitors for treating osteoporosis” (The General Hospital Corporation, priority 2016, dated 2024)", "key": {"Ocy454 cells [1]": {"system": "Ocy454 cells", "assay": "cAMP radioimmunoassay", "assay_type": "cell-based, mouse", "conditions": "20 minutes; FIG. 14B", "method": "Cells, in 96 well plates, were treated with indicated ligands for 20 minutes at room temperature in the presence of the phosphodiesterase inhibitor 3-isobutyl-1-methylxanthine (IBMX, Sigma I5879, 2 mM). The medium was then removed and cells were lysed in 50 mM HCl and transferred to −80C. Thawed lysates were diluted 1:5 with dH2O, and an 10 μl aliquot was assessed for cAMP content by radioimmunoassay using ^125I-cAMP analog as a tracer and unlabeled cAMP to generate a standard curve."}, "Ocy454 cells [2]": {"system": "Ocy454 cells", "assay": "Immunoblotting of Ocy454 cell lysates (HDAC4/5, CRTC2, SIK2 phosphorylation and localisation)", "assay_type": "cell-based, mouse"}, "Ocy454 cells [3]": {"system": "Ocy454 cells", "assay": "Gene expression in Ocy454 cells by RT-qPCR", "assay_type": "cell-based, mouse"}, "male mice [4]": {"system": "male mice", "assay": "Acute YKL-05-099 administration: bone gene expression", "assay_type": "in vivo, mouse", "conditions": "single I.P. dose 20 μmol/kg, 2 hours", "method": "(§1) Whole cell extracts were generated, followed by immunoblotting. […] RNA was prepared, and gene expression analyzed by RT-qPCR. […] 2 hours later, animals were sacrificed, RNA was prepared from femurs, and gene expression analyzed by RT-qPCR. […] Animals were sacrificed 2 hours after the final dose, and RNA from femurs analyzed for the indicated genes. BGLAP encodes osteocalcin. * indicated p<0.01 versus vehicle, # indicates p<0.05 versus vehicle. (FIGS. 8E to 8K), static and dynamic histomorphometry were performed on the tibia from the same mice as in FIG. 8D. Each data point represents an individual mouse, p values for each difference are shown on the graph. (FIG. 8L) Representative photomicrograph showing increased osteoblasts on cancellous bone surfaces from YKL-05-099-treated mice.\nAll animals were housed in the Center for Comparative Medicine at the Massachusetts General Hospital, and all experiments were approved by the hospital's Subcommittee on Research Animal Care. HDAC5-null mice (70) and HDAC4 f/f mice (71) were generously provided by Dr. Eric Olson (University of Texas Southwestern Medical Center, Dallas, TX) and were backcrossed to C57B/6 mice for at least 6 generations. […] In all instances, skeletal phenotypes were evaluated in 8 week-old sex-matched littermates. […]"}, "male mice [5]": {"system": "male mice", "assay": "YKL-05-099 once daily for 2 weeks: bone RNA, static and dynamic histomorphometry", "assay_type": "in vivo, mouse", "conditions": "6 mg/kg once daily i.p.", "method": "as §1\nTo determine effects on bone mass and cellular composition/activity, static and dynamic histomorphometry were performed. […] Other than the observed reduction in osteoclast numbers, these findings are quite similar to the effects of once daily PTH treatment.\nAll animals were housed in the Center for Comparative Medicine at the Massachusetts General Hospital, and all experiments were approved by the hospital's Subcommittee on Research Animal Care. HDAC5-null mice (70) and HDAC4 f/f mice (71) were generously provided by Dr. Eric Olson (University of Texas Southwestern Medical Center, Dallas, TX) and were backcrossed to C57B/6 mice for at least 6 generations. DMP1-Cre mice (27) were generously provided by Dr. Jian (Jerry) Feng (Texas A&M University, Baylor College of Dentistry, Dallas, TX). “DKO” HDAC4/5 mice were of the following genotype: HDAC4f/f; HDAC5−/−; DMP1-Cre. SIK2 f/f mice were as described (40), and were bred to DMP1-Cre animals to generate SIK2^OcyKO mice. ES cells carrying the targeted SOST allele Sost^tm1(KOMP)Vleg, in which the SOST coding sequence has been replaced by LacZ and floxed Neo cassette, were obtained from the Knockout Mouse Project (KOMP) Repository. Clone VG10069-BE8 was injected into blastocysts, and the resulting SOST+/− mice were crossed to HDAC5 mutant animals to generate compound heterozygous mice. In all instances, skeletal phenotypes were evaluated in 8 week-old sex-matched littermates. For acute effects of PTH on bone gene expression, animals were treated with PTH (1-34, 300 μg/kg, subcutaneous administration) and then sacrificed 90 minutes later. For acute effects of YKL-05-093 on bone gene expression, animals were treated with the indicated doses of compound (dissolved in PBS+25 mM HCl) or solvent via intraperitoneal injections, and sacrificed 2 hours later. […] For in vivo sclerostin antibody treatment, mice were treated twice weekly with sclerostin antibody (50 mg/kg, subcutaneous administration, generously provided by Dr. Michael Ominsky, Amgen) for 6 weeks. Power calculations were performed based on pilot experiments in which standard deviations and magnitudes of effect sizes were estimated. For experiments in which mice were treated with either vehicle or PTH (or YKL-05-093), mice were assigned to alternating treatment groups in consecutive order.\nRight tibia from 8-week-old mice were subjected to bone histomorphometric analysis. The mice were injected 20 mg/kg body weight of calcein and 40 mg/kg body weight of demeclocycline on 7 and 2 days before necropsy, respectively. The tibia was dissected and fixed in 70% ethanol for 3 days. Fixed bones were dehydrated in graded ethanol, then infiltrated and embedded in methylmethacrylate without demineralization. Undecalcified 4-μm-thick longitudinal sections were obtained using microtome (RM2255, Leica Biosystems., IL, USA). Sections were left unstained for dynamic parameters measurement, and consecutive sections were stained with tartrate-resistant acid phosphatase and counterstained with toluidine blue for measurement of cellular parameters. […]"}, "[6]": {"conditions": "in vivo; cited from earlier work"}, "[7]": {"conditions": "control vs SIK2/3 deficient cells, 0.5 μM, 4 hours"}, "[8]": {"conditions": "1 μM, 4 hours, control vs shSIK2/3 cells, FIG. 8B"}}, "note": "Entries after “also recorded” stand apart in the source; their conditions may differ."}
{"smiles": "COc1ccc(N2C(=O)N(c3c(C)cccc3C)Cc3cnc(Nc4ccc(C5CCN(C)CC5)c(OC)c4)nc32)c(OC)c1", "note": "[YKL-05-093]", "values": [{"measurement": "cAMP levels", "setting": "Ocy454 cells [1]", "result": "does not induce cAMP generation; also recorded: without increasing cAMP levels"}, {"measurement": "SIK2 S358 phosphorylation", "setting": "Ocy454 cells [2]; control and Gsα-deficient Ocy454 cells, 10 μM, 30 minutes", "result": "did not increase SIK2 S358 phosphorylation"}, {"measurement": "HDAC4 S246 phosphorylation", "setting": "Ocy454 cells [2]; osteocytes lacking SIK2 and SIK3, 10 μM for 45 minutes", "result": "did not decrease HDAC4 S246 phosphorylation"}, {"measurement": "RANKL expression", "setting": "Ocy454 cells [3]; FIG. 5E", "result": "RANKL up-regulation"}, {"measurement": "SOST expression", "setting": "Ocy454 cells [3]; FIG. 5E", "result": "rapid and potent SOST suppression"}, {"measurement": "RANKL expression", "setting": "Ocy454 cells [3]; Gsα-deficient Ocy454, 0.5 μM", "result": "RANKL up-regulation with effects similar to forskolin"}, {"measurement": "SOST expression", "setting": "Ocy454 cells [3]; Gsα-deficient Ocy454, 0.5 μM", "result": "SOST suppression"}, {"measurement": "stimulation of RANKL expression", "setting": "Ocy454 cells [3]; cells lacking CRTC2, PTH 1 nM or YKL-05-093 0.5 μM, 4 hours", "result": "abrogated"}, {"measurement": "genes measured with SIK2/3-dependent regulation", "setting": "Ocy454 cells [3]; [7]", "result": "13/19"}, {"measurement": "genes measured with regulation independent of the presence of SIK2/3", "setting": "Ocy454 cells [3]; [7]", "result": "6/19"}, {"measurement": "SOST expression", "setting": "Ocy454 cells [3]; osteocytes lacking SIK2 and SIK3, 0.5 μM, 4 hours", "result": "did not decrease HDAC4 S246 phosphorylation or cause SOST suppression"}]}
{"smiles": "COc1ccc(N2C(=O)N(c3c(C)cccc3Cl)Cc3cnc(Nc4ccc(C5CCN(C)CC5)cc4OC)nc32)nc1", "note": "[YKL-05-099]", "values": [{"measurement": "RANKL in bone RNA", "setting": "male mice [4]", "result": "RANKL up-regulation"}, {"measurement": "SOST in bone RNA", "setting": "male mice [4]", "result": "SOST down-regulation"}, {"measurement": "RANKL levels in bone RNA", "setting": "male mice [5]", "result": "increased"}, {"measurement": "SOST in bone RNA", "setting": "male mice [5]", "result": "trend towards reduced SOST"}, {"measurement": "bone formation rate", "setting": "male mice [5]", "result": "increased bone formation rate"}, {"measurement": "cancellous bone mass", "setting": "male mice [5]", "result": "increased cancellous bone mass"}, {"measurement": "matrix apposition rate", "setting": "male mice [5]", "result": "trend towards increased matrix apposition rate"}, {"measurement": "mineralizing surface", "setting": "male mice [5]", "result": "increased mineralizing surface"}, {"measurement": "osteoblast marker genes (osteocalcin and COL1A1)", "setting": "male mice [5]", "result": "significantly increased"}, {"measurement": "osteoblast numbers", "setting": "male mice [5]", "result": "increased osteoblast numbers"}, {"measurement": "osteoclast numbers", "setting": "male mice [5]", "result": "reduced osteoclast numbers"}, {"measurement": "osteoid surface", "setting": "male mice [5]", "result": "increased"}, {"measurement": "tolerability", "setting": "[6]", "result": "well-tolerated"}, {"measurement": "HDAC4 S246 phosphorylation", "setting": "Ocy454 cells [2]; indicated doses, 20 minutes, FIG. 8A", "result": "dose-dependent reduction in HDAC4 S246 phosphorylation"}, {"measurement": "RANKL expression", "setting": "Ocy454 cells [3]; [8]", "result": "RANKL up-regulation in a SIK2/3-dependent manner"}, {"measurement": "SOST expression", "setting": "Ocy454 cells [3]; [8]", "result": "SOST down-regulation"}]}
